Experimental findings from patent US11453660B2, “Androgen receptor and glucocorticoid receptor modulators” (ONCOSTELLAE, S.L., priority 2017, dated 2022) are described below.

The first assay has as its target T1, human androgen receptor (Homo sapiens, UniProt P10275, T878A).
T1 construct: endogenously expressed human androgen receptor using the LnCap prostate cancer cell line; endogenous in cells; host or cells: LNCaP prostate cancer cell line (whole cells)
T1 sequence (P10275 1-920 T878A): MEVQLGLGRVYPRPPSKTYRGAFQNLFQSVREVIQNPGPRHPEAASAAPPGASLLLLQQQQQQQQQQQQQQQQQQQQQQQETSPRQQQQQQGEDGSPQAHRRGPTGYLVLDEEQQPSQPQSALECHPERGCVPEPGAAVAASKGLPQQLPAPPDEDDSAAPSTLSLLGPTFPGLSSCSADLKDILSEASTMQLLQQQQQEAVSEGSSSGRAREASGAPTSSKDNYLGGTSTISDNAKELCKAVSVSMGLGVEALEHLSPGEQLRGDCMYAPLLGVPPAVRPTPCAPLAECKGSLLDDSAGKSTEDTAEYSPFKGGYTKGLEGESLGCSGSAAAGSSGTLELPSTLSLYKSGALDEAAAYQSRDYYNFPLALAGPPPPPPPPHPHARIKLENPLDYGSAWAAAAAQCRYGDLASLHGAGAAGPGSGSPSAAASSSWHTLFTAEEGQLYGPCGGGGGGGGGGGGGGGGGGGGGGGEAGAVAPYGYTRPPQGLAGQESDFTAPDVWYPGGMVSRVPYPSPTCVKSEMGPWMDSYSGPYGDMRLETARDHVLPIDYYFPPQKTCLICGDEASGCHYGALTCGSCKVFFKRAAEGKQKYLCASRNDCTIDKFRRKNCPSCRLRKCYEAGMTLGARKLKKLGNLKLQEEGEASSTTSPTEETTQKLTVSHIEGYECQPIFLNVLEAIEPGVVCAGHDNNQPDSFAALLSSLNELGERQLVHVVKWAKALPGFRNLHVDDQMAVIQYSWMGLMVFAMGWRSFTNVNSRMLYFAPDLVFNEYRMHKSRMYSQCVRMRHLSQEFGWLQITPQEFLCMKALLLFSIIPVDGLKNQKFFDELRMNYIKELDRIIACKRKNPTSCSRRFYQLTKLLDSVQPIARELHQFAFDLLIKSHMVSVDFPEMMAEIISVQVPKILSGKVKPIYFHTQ
Briefly: Human Androgen Receptor Binding (radioligand binding, LnCap prostate cancer cell line). To be noted: LnCap cells, displacement of [^3H]-methyltrienolone, 2 hours at 37° C.; read-out: AR LNCaP. On the procedure:
Human Androgen Receptor Binding
Radioligand binding studies were carried out on endogenously expressed human androgen receptor using the LnCap prostate cancer cell line. The test is based on measuring radioactively labelled AR ligand [^3H]-methyltrienolone that gets displaced by increasing concentrations of test compound. The test is performed in 96-well plates (Falcon, #353072). Positive and negative controls are also required in each analyzed plate to evaluate the total and non-specific binding binding of the radioligand to the receptor. Cells (60000 per well) were incubated for 24 hours before executing the experiment at 37° C. and in a 5% CO2 atmosphere. Medium was replaced by assay buffer (RPMI-640 (ATCC #30-2001) supplemented with 0.1% bovine serum albumin (Sigma #8806-56) and Triamcinolone acetonide (Sigma #T6501)). The compounds at the desired concentrations and [^3H]methyltrienolone (Perkin Elmer #NET590) were added to the wells.
In order to obtain a dose-response curve and calculate the potency of inhibition (expressed as IC50) for AR, a series of 1:10 dilutions in test in 1× buffer from 10 μM to 0.1 nM for each compound was carried out.
Cells were incubated for 2 hours at 37° C. in a 5% CO2 atmosphere and then washed twice with ice-cold HBSS. Then cells were lysed with solubilization buffer (Hank's Balanced Salt Solution (HBSS, Sigma #H6648), 0.5% Sodium dodecyl sulfate 0.5% (SDS, Sigma #L7390-500G, Lote: 078K0102) and 20% Glycerol (Sigma Aldrich, #G2025) for 30 minutes at RT. 75 μL aliquots were taken from each well and transferred to a 96-well flexiplate (Perkin Elmer #1450-401) and mixed with 100 μL of scintillation cocktail (Optiphase supermix, PerkinElmer, #1200-439). Plates are shaken for 60 minutes and radioactivity was measured in a beta scintillation counter (Microbeta Trilux, Perkin Elmer).
`CC(=O)C1=C(C)NC(C)=C(C(=O)OCC2CC2)C1c1csc2ccc(Cl)cc12` (centres unmarked) [Example C32, Cyclopropylmethyl 5-acetyl-4-(5-chlorobenzo[b]thiophen-3-yl)-2,6-dimethyl-1,4-dihydropyridine-3-carboxylate]: the IC50 was no less than 1 µM.

In the case of `COC(=O)C1=C(C(F)(F)F)NC(C)=C(C(C)=O)C1c1csc2ccc(Cl)cc12` (centres unmarked) [Example C38, Methyl 5-acetyl-4-(5-chlorobenzo[b]thiophen-3-yl)-6-methyl-2-(trifluoromethyl)-1,4-dihydropyridine-3-carboxylate], the IC50 is less than 0.1 µM. As to `CC(=O)C1=C(C)NC(C(F)(F)F)=C(C(=O)OCc2ccccc2)C1c1csc2ccccc12` (centres unmarked) [Example C45, Benzyl 5-acetyl-4-(benzo[b]thiophen-3-yl)-6-methyl-2-(trifluoromethyl)-1,4-dihydropyridine-3-carboxylate], the IC50 is no less than 1 µM. Turning to `COC(=O)C1=C(C(F)(F)F)NC(C)=C(C(C)=O)C1c1csc2ncccc12` (centres unmarked) [Example C53, Methyl 5-acetyl-6-methyl-4-(thieno[2,3-b]pyridin-3-yl)-2-(trifluoromethyl)-1,4-dihydropyridine-3-carboxylate], the IC50 was less than 0.1 µM. Still for that read-out and setting: for `COC(=O)C1=C(C2CC2)NC(C)=C(C(C)=O)C1c1csc2ccc(Cl)cc12` (centres unmarked) [Example J25, Methyl 5-acetyl-4-(5-chlorobenzo[b]thiophen-3-yl)-2-cyclopropyl-6-methyl-1,4-dihydropyridine-3-carboxylate] the value was 0.1 to 1 µM; for `COC(=O)C1=C(C2CC2)NC(C)=C(C(C)=O)C1c1csc2c(C(=O)OC)cccc12` (centres unmarked) [Example J29, Methyl 5-acetyl-2-cyclopropyl-4-(7-(methoxycarbonyl)benzo[b]thiophen-3-yl)-6-methyl-1,4-dihydropyridine-3-carboxylate], 0.1 to 1 µM. For the compound `COC(=O)C1=C(C2CC2)NC(C)=C(C(C)=O)C1c1csc2c(C(=O)O)cccc12` (centres unmarked) [Example J30, 3-(3-Acetyl-6-cyclopropyl-5-(methoxycarbonyl)-2-methyl-1,4-dihydropyridin-4-yl)benzo[b]thiophene-7-carboxylicacid], the IC50 was no less than 1 µM. Still for that read-out and setting: the same measure for `CC(=O)C1=C(C)NC(C)=C(C(C)=O)C1c1csc2c(C#N)cccc12` [Example J40, 3-(3,5-diacetyl-2,6-dimethyl-1,4-dihydropyridin-4-yl)benzo[b]thiophene-7-carbonitrile]: no less than 1 µM.

The target of another assay is T2, Human Glucocorticoid Receptor (Homo sapiens, UniProt P04150).
T2 construct: endogenous in cells; host or cells: cytosol from IM-9 cell line
T2 sequence (P04150 1-777): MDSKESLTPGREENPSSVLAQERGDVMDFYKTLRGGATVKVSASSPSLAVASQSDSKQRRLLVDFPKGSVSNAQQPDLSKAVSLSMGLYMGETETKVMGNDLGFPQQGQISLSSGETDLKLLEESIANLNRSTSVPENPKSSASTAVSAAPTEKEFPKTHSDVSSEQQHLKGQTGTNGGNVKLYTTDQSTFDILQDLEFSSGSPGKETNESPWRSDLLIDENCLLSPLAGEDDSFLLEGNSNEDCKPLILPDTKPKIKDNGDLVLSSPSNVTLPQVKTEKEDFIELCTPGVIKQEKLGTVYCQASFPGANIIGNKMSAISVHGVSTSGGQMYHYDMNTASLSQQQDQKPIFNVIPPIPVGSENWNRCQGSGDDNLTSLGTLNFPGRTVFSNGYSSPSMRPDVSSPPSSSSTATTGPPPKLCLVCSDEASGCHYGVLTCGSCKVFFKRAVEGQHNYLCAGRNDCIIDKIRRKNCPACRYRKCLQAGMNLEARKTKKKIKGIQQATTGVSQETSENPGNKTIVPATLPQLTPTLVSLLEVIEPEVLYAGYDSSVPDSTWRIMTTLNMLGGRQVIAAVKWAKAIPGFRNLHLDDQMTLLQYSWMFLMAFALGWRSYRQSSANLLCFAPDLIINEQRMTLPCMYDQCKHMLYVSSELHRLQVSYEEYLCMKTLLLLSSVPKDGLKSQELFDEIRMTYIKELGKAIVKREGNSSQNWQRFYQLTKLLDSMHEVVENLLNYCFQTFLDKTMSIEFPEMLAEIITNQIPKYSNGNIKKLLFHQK
Briefly: Competition Binding in IM-9 Human Glucocorticoid Receptor (GR IM-9). To be noted: cytosol from IM-9 cell line, 1.5 nM [3H]-Dexamethasone, 4° C. for 6 hours. The procedure:
Competition Binding in IM-9 Human Glucocorticoid Receptor (GR IM-9)
Glucocorticoid receptor competition binding assays were carried out in a polypropilene 96-well plate. In each well was incubated 100 μg of cytosol from IM-9 cell line, 1.5 nM [3H]-Dexamethasone (71 Ci/mmol, 1 mCi/ml, Perkin Elmer NET1192001MC) and compounds studied and standard. Non-specific binding was determined in the presence of Triamcinolone 10 μM (Sigma Aldrich T6376).
The reaction mixture (Vt: 200 μl/well) was incubated at 4° C. for 6 hours, 180 μL was transferred to GF/B 96-well plate (Millipore, Madrid, Spain) pretreated with 0.5% of PEI and treated with binding buffer (TES 10 mM, sodium molybdate 10 mM, EDTA 1 mM, pH 7.4, 2-mercaptoethanol 20 mM, Glycerol 10%) after was filtered and washed six times with 250 μl wash buffer (TES 10 mM, sodium molybdate 10 mM, EDTA 1 mM, pH 7.4, 2-mercaptoethanol 20 mM Glycerol 10%), before measuring in a microplate beta scintillation counter (Microbeta Trilux, PerkinElmer, Madrid, Spain).
As to `C#CCOC(=O)C1=C(N)NC(C)=C(C(=O)OC)C1c1csc2c(C#N)cccc12` (centres unmarked) [Example D55, 5-Methyl 3-prop-2-yn-1-yl 2-amino-4-(7-cyanobenzo[b]thiophen-3-yl)-6-methyl-1,4-dihydropyridine-3,5-dicarboxylate], the IC50 is less than 0.1 µM. Compound `COC(=O)C1=C(C(F)(F)F)NC(N)=C(C(=O)OCC2CC2)C1c1csc2c(C#N)cccc12` (centres unmarked) [Example D56, 3-(Cyclopropylmethyl) 5-methyl 2-amino-4-(7-cyanobenzo[b]thiophen-3-yl)-6-(trifluoromethyl)-1,4-dihydropyridine-3,5-dicarboxylate] showed an IC50 of less than 0.1 µM.

`COC(=O)C1=C(C2CC2)NC(C2CC2)=C(C(=O)OC)C1c1csc2ccc(Cl)cc12` [Example J25-a, Dimethyl 4-(5-chlorobenzo[b]thiophen-3-yl)-2,6-dicyclopropyl-1,4-dihydropyridine-3,5-dicarboxylate] returned an IC50 of 0.1 to 1 µM. The compound `CC(=O)C1=C(C)NC(C2CC2)=C(C(=O)OCc2ccncc2)C1c1csc2ncccc12` (centres unmarked) [Example J36, Pyridin-4-ylmethyl 5-acetyl-2-cyclopropyl-6-methyl-4-(thieno[2,3-b]pyridin-3-yl)-1,4-dihydropyridine-3-carboxylate] displayed an IC50 of no less than 1 µM. For `O=C(OCc1ccc(F)cc1)C1=C(C2CC2)NC(C2CC2)=C(C(=O)OCc2ccc(F)cc2)C1c1csc2ncccc12` [Example J42-a, bis(4-fluorobenzyl) 2,6-dicyclopropyl-4-(thieno[2,3-b]pyridin-3-yl)-1,4-dihydropyridine-3,5-dicarboxylate], the IC50 is 0.1 to 1 µM. Same read-out and setting: the same measure for `CC(=O)C1=C(C)NC(C)=C(C(=O)OCc2ccnc(-c3ccncc3)c2)C1c1csc2ncccc12` (centres unmarked) [Example L12, [2,4′-bipyridin]-4-ylmethyl 5-acetyl-2,6-dimethyl-4-(thieno[2,3-b]pyridin-3-yl)-1,4-dihydropyridine-3-carboxylate]: 0.1 to 1 µM. As to `COC(=O)C1=C(C2CC2)NC(C)=C(C(C)=O)C1c1csc2c(-c3ccncc3)cccc12` (centres unmarked) [Example L13, Methyl 5-acetyl-2-cyclopropyl-6-methyl-4-(7-(pyridin-4-yl)benzo[b]thiophen-3-yl)-1,4-dihydropyridine-3-carboxylate], the IC50 lay in the range of 0.1 to 1 µM. In the case of `COC(=O)C1=C(C2CC2)NC(C)=C(C(C)=O)C1c1csc2c(C3CC3)cccc12` (centres unmarked) [Example L14, Methyl 5-acetyl-2-cyclopropyl-4-(7-cyclopropylbenzo[b]thiophen-3-yl)-6-methyl-1,4-dihydropyridine-3-carboxylate], the IC50 was no less than 1 µM.

In turn, `COC(=O)C1=C(C2CC2)NC(C)=C(C(C)=O)C1c1csc2c(-c3ccccc3)cccc12` (centres unmarked) [Example N1, Methyl 5-acetyl-2-cyclopropyl-6-methyl-4-(7-phenylbenzo[b]thiophen-3-yl)-1,4-dihydropyridine-3-carboxylate] had an IC50 of no less than 1 µM.
